Data from US20060069132A1, “Azolecarboxamide herbicides” (priority 2004, published 2006).

Key:
Assay in all cases: Test C pre-/postemergence herbicide test
lambsquarters = assay type: in vivo, Chenopodium album; details: preemergence; for Plant response rating (0 = no effect, 100 = complete control), Lambsquarters: 125 g ai/ha
How it was run: (§1)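 Seeds were planted and sprayed preemergence with test chemicals in a non-phytotoxic solvent mixture containing surfactant; postemergence treatments went onto plants 2 to 18 cm tall (1- to 4-leaf stage). After 12 to 14 days in a greenhouse, injury was rated visually against untreated controls on a 0–100 scale.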

[1] = system: common (oilseed) sunflower; assay type: in vivo, Helianthus annuus; details: preemergence; for Plant response rating (0 = no effect, 100 = complete control), Sunflower: 125 g ai/ha
How it was run: as §1

cocklebur = assay type: in vivo, Xanthium strumarium; details: preemergence; for Plant response rating (0 = no effect, 100 = complete control), Cocklebur: 125 g ai/ha
How it was run: as §1

velvetleaf = assay type: in vivo, Abutilon theophrasti; details: preemergence; for Plant response rating (0 = no effect, 100 = complete control), Velvetleaf: 125 g ai/ha
How it was run: as §1

goosegrass = assay type: in vivo, Eleusine indica; details: preemergence; for Plant response rating (0 = no effect, 100 = complete control), Goosegrass: 125 g ai/ha
How it was run: as §1

soybean = assay type: in vivo, Glycine max; details: preemergence; for Plant response rating (0 = no effect, 100 = complete control), Soybean: 125 g ai/ha
How it was run: as §1

yellow nutsedge = assay type: in vivo, Cyperus esculentus; details: preemergence; for Plant response rating (0 = no effect, 100 = complete control), Nutsedge, Yellow: 125 g ai/ha
How it was run: as §1

[2] = 500 g ai/ha, scale 0 to 100 (0 no effect, 100 complete control), visual, 12 to 14 days

Compound | Plant response rating, Lambsquarters (lambsquarters; 62 g ai/ha, scale 0 to 100) | Plant response rating (0 = no effect, 100 = complete control), Lambsquarters (lambsquarters) | Plant response rating, Lambsquarters (lambsquarters; 250 g ai/ha, scale 0-100) | Plant response rating, Lambsquarters (lambsquarters; [2]) | Plant response rating, Sunflower ([1]; 62 g ai/ha, scale 0 to 100) | Plant response rating (0 = no effect, 100 = complete control), Sunflower [1] | Plant response rating, Sunflower [1, 2] | Plant response rating, Cocklebur (cocklebur; 62 g ai/ha, scale 0 to 100) | Plant response rating (0 = no effect, 100 = complete control), Cocklebur (cocklebur) | Plant response rating, Cocklebur (cocklebur; 250 g ai/ha, scale 0-100) | Plant response rating, Cocklebur (cocklebur; [2]) | Plant response rating, Velvetleaf (velvetleaf; 62 g ai/ha, scale 0 to 100) | Plant response rating (0 = no effect, 100 = complete control), Velvetleaf (velvetleaf) | Plant response rating, Velvetleaf (velvetleaf; [2]) | Plant response rating, Goosegrass (goosegrass; 62 g ai/ha, scale 0 to 100) | Plant response rating (0 = no effect, 100 = complete control), Goosegrass (goosegrass) | Plant response rating, Goosegrass (goosegrass; 250 g ai/ha, scale 0-100) | Plant response rating, Goosegrass (goosegrass; [2]) | Plant response rating, Soybean (soybean; 62 g ai/ha, scale 0 to 100) | Plant response rating (0 = no effect, 100 = complete control), Soybean (soybean) | further results
Cc1nn(C(C)(C)C)nc1C(=O)Nc1cccc(C(=S)N(C)C)c1 [Compound 419] | 95 | 95 | 100 | 100 | 0 | 0 | 95 | 0 | 25 | 45 | 70 | 100 | 100 | 100 | 45 | 95 | 100 | 100 | 40 | 85 | Plant response rating, Soybean (soybean; [2]): 95; Plant response rating, Nutsedge, Yellow (yellow nutsedge; 62 g ai/ha, scale 0 to 100): 0; Plant response rating (0 = no effect, 100 = complete control), Nutsedge, Yellow (yellow nutsedge): 0; Plant response rating, Nutsedge, Yellow (yellow nutsedge; [2]): 0
CCNC(=S)c1cccc(NC(=O)c2nn(C(C)(C)C)nc2C)c1 [Compound 420] | 95 | 100 | 100 | 100 | 0 | 0 | 65 | 0 | 0 | 15 | 70 | 80 | 100 | 100 | 95 | 95 | 100 | 100 | 0 | 10 | Plant response rating, Soybean (soybean; [2]): 85; Plant response rating, Nutsedge, Yellow (yellow nutsedge; 62 g ai/ha, scale 0 to 100): 0; Plant response rating (0 = no effect, 100 = complete control), Nutsedge, Yellow (yellow nutsedge): 0; Plant response rating, Nutsedge, Yellow (yellow nutsedge; [2]): 25
